The test system of one data set is Klebsiella pneumoniae. The conditions noted are these: K. pneumoniae FADDI-KP032. The essentials: (§1)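 Broth microdilution MICs following CLSI standards in cation-adjusted Mueller-Hinton broth. Lipopeptides tested as TFA salts; polymyxin B sulphate served as control.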
The next data set concerns Acinetobacter baumannii. The following applies: for MIC: A. baumannii ATCC 19606; for Minimum inhibitory concentration, Ab A ATCC 17978: Acinetobacter baumannii ATCC 17978; for Minimum inhibitory concentration, Ab A ATCC 17978 / Minimum inhibitory concentration, Ab ATCC 19606 / Minimum inhibitory concentration, Ab FADDI-AB034: broth microdilution in CAMHB; for Minimum inhibitory concentration, Ab ATCC 19606: Acinetobacter baumannii ATCC 19606; for Minimum inhibitory concentration, Ab FADDI-AB034: Acinetobacter baumannii FADDI-AB034. The essentials:
as §1

The test system of another data set is Enterobacter cloacae. The following applies: broth microdilution in CAMHB; for Minimum inhibitory concentration, Ec FADDI-EC001: Enterobacter cloacae FADDI-EC001; for Minimum inhibitory concentration, Ec FADDI-EC003: Enterobacter cloacae FADDI-EC003; for Minimum inhibitory concentration, Ec FADDI-EC006: Enterobacter cloacae FADDI-EC006. Summed up: as §1
In general terms: Broth dilution looks for growth in wells or tubes with falling amounts of substance.

In the next data set the test system is Pseudomonas aeruginosa. The following applies: for MIC: P. aeruginosa ATCC 27853; for Minimum inhibitory concentration, Pa ATCC 27853: Pseudomonas aeruginosa ATCC 27853; for Minimum inhibitory concentration, Pa ATCC 27853 / Minimum inhibitory concentration, Pa FADDI-PA022 / Minimum inhibitory concentration, Pa FADDI-PA025: broth microdilution in CAMHB; for Minimum inhibitory concentration, Pa FADDI-PA022: Pseudomonas aeruginosa FADDI-PA022; for Minimum inhibitory concentration, Pa FADDI-PA025: Pseudomonas aeruginosa FADDI-PA025. The essentials: as §1

For another data set, the system named is P. aeruginosa ATCC 27853. As to the kind of experiment: In vivo efficacy in mouse blood infection model (neutropenic Swiss mice). The conditions noted are these: compound, free base 4 mg/kg intravenously 2 h after inoculation, blood at 4 h. Summed up: (§2)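 Neutropenic Swiss mice (cyclophosphamide 150 mg/kg day −4, 100 mg/kg day −1, i.p.) infected i.v. with early log-phase bacteria; 4 mg/kg free base i.v. given 2 h post-inoculation. Blood CFU by cardiac puncture 4 h post-dose; Δlog10 CFU/mL treated versus saline controls.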

The test system of another data set is A. baumannii ATCC 19606. Described as above. The following applies: compound, free base 4 mg/kg intravenously 2 h after inoculation, blood at 4 h. The essentials:
as §2

In data set [1] the test system is K. pneumoniae FADDI-KP032. Described as above. The following applies: compound, free base 4 mg/kg intravenously 2 h after inoculation, blood at 4 h. The essentials: as §2
Data set [2] can be described thus: Nephrotoxicity in a mouse model (kidney histology score). Type of data set: in vivo. The conditions noted are these: mice, subcutaneous 12 mg base/kg, 6 doses in one day every 2 h; for Max Overall Kidney Histology Score: kidney ~20 h after last dose, product of percentage score and grade score; for Max Kidney Histology Score: semiquantitative score (SQS) 0 to +5. As to the method:
PMB sulphate (Batch 20120204) and colistin sulphate (Batch 20120719) were supplied by Betapharma (Shanghai Co., Ltd, China). […] At ˜20 h after the last dose, mice were euthanised by inhalation of an overdose of isoflurane. […] The formalin-fixed kidneys were then sent to the Australian Phenomics Network-Histopathology and Organ Pathology (The University of Melbourne, Parkville, VIC, Australia) for histological examination. The samples were examined by a pathologist who was blind to the treatment groups. Lesions were rated as follows: mild acute tubular damage with tubular dilation, prominent nuclei and a few pale […] tubular casts (Grade 1); severe acute tubular damage with necrosis of tubular epithelial cells and numerous tubular casts (Grade 2); acute cortical necrosis/infarction of tubules and glomeruli with or without papillary necrosis (Grade 3). […] The overall kidney histology score was calculated as the product of percentage score and grade score. […] These scores were assigned as follows: […] SQS+3=moderate damage (overall score, 30 to <45); […]

Converted amounts (≈) assume the structure as drawn. Positions of bridges follow the written chain, without caps; N, C: chain ends. Non-standard residues stand in square brackets, D forms with d. Residues, ends and D or L forms follow the SMILES beside them. *: point of attachment. Benzoyl(3,5-Cl2) = O=C(c1cc(Cl)cc(Cl)c1)*; Benzoyl(3-Cl) = O=C(c1cccc(Cl)c1)*; X4 = O=C(c1ccc(Cl)c(Cl)c1)*; X3 = O=C(c1ccc(Cl)cc1Cl)*; Dab = NCC[C@H](N)C(=O)O; Abu = CC[C@H](N)C(=O)O; Dap = NC[C@H](N)C(=O)O

Regarding `CC[C@@H]1NC(=O)[C@@H](CC(C)C)NC(=O)[C@H](CCN)NC(=O)[C@@H](NC(=O)[C@H](CN)NC(=O)[C@@H](NC(=O)[C@H](CCN)NC(=O)c2ccc(Cl)c(Cl)c2)[C@@H](C)O)CCNC(=O)[C@H]([C@@H](C)O)NC(=O)[C@H](CCN)NC(=O)[C@H](CCN)NC1=O` [Compound 71] (X4-[Dab]T[Dap][Dab][Dab][dL][Abu][Dab][Dab]T; lactam 4-C), the MIC in the data set with Klebsiella pneumoniae was determined as 0.5 µg/mL (≈ 0.431 µM). For the same compound, in the data set on Acinetobacter baumannii, the MIC is 0.5 µg/mL (≈ 0.431 µM); the “Minimum inhibitory concentration, Ab A ATCC 17978” value was 0.25 µg/mL (≈ 0.215 µM); the “Minimum inhibitory concentration, Ab ATCC 19606” value was determined as 0.5 µg/mL (≈ 0.431 µM); the “Minimum inhibitory concentration, Ab FADDI-AB034” value turned out to be 0.25 µg/mL (≈ 0.215 µM). Also, in the data set with Enterobacter cloacae, the “Minimum inhibitory concentration, Ec FADDI-EC001” value came out at 1 µg/mL (≈ 0.862 µM); the “Minimum inhibitory concentration, Ec FADDI-EC003” value turned out to be 0.25 µg/mL (≈ 0.215 µM); the “Minimum inhibitory concentration, Ec FADDI-EC006” value came out at 1 µg/mL (≈ 0.862 µM). Further, in the data set on Pseudomonas aeruginosa, the MIC is 0.5 µg/mL (≈ 0.431 µM); the “Minimum inhibitory concentration, Pa ATCC 27853” value was determined as 0.5 µg/mL (≈ 0.431 µM); the “Minimum inhibitory concentration, Pa FADDI-PA022” value was determined as 4 µg/mL (≈ 3.45 µM); the “Minimum inhibitory concentration, Pa FADDI-PA025” value is 1 µg/mL (≈ 0.862 µM). For the same compound, the “Δ log (Treated-Control at 4 h)” value in the data set with P. aeruginosa ATCC 27853 is −4.04 log10 CFU/mL. Further, the “Δ log (Treated-Control at 4 h)” value with A. baumannii ATCC 19606 is reported as −1.82 log10 CFU/mL. Moreover, the “Δ log (Treated-Control at 4 h)” value in data set [1] is −2.98 log10 CFU/mL. In addition, in data set [2], the “Max Overall Kidney Histology Score” value worked out at 0.0 and the “Max Kidney Histology Score” value was 0 (SQS 0=no significant change (overall score, <1)).
As to `CC[C@@H]1NC(=O)[C@@H](CC(C)C)NC(=O)[C@H](CCN)NC(=O)[C@@H](NC(=O)[C@H](CN)NC(=O)[C@@H](NC(=O)[C@H](CCN)NC(=O)c2ccc(Cl)cc2Cl)[C@@H](C)O)CCNC(=O)[C@H]([C@@H](C)O)NC(=O)[C@H](CCN)NC(=O)[C@H](CCN)NC1=O` [Compound 82] (X3-[Dab]T[Dap][Dab][Dab][dL][Abu][Dab][Dab]T; lactam 4-C), the minimum inhibitory concentration (MIC) in the data set with Klebsiella pneumoniae is less than 0.125 µg/mL. Further, in the data set on Acinetobacter baumannii, the minimal inhibitory concentration (MIC) was determined as 0.5 µg/mL (≈ 0.431 µM); the “Minimum inhibitory concentration, Ab A ATCC 17978” value was 0.5 µg/mL (≈ 0.431 µM); the “Minimum inhibitory concentration, Ab ATCC 19606” value was found to be 0.5 µg/mL (≈ 0.431 µM); the “Minimum inhibitory concentration, Ab FADDI-AB034” value was found to be 0.25 µg/mL (≈ 0.215 µM). Further, in the data set with Enterobacter cloacae, the “Minimum inhibitory concentration, Ec FADDI-EC001” value was less than 0.125 µg/mL; the “Minimum inhibitory concentration, Ec FADDI-EC003” value is less than 0.125 µg/mL; the “Minimum inhibitory concentration, Ec FADDI-EC006” value was less than 0.125 µg/mL. For the same compound, in the data set on Pseudomonas aeruginosa, the minimum inhibitory concentration (MIC) was determined as 0.5 µg/mL (≈ 0.431 µM); the “Minimum inhibitory concentration, Pa ATCC 27853” value stood at 0.5 µg/mL (≈ 0.431 µM); the “Minimum inhibitory concentration, Pa FADDI-PA022” value came out at 0.5 µg/mL (≈ 0.431 µM); the “Minimum inhibitory concentration, Pa FADDI-PA025” value stood at 1 µg/mL (≈ 0.862 µM). For the same compound, the “Δ log (Treated-Control at 4 h)” value in the data set on P. aeruginosa ATCC 27853 was −3.44 log10 CFU/mL. The “Δ log (Treated-Control at 4 h)” value in the data set with A. baumannii ATCC 19606 is listed as −1.44 log10 CFU/mL. For the same compound, the “Δ log (Treated-Control at 4 h)” value in data set [1] is listed as −3.33 log10 CFU/mL. In data set [2], the “Max Overall Kidney Histology Score” value was found to be 0.0 and the “Max Kidney Histology Score” value is 0 (SQS 0=no significant change (overall score, <1)).
Consider `CC[C@@H]1NC(=O)[C@@H](CC(C)C)NC(=O)[C@H](CCN)NC(=O)[C@@H](NC(=O)[C@H](CN)NC(=O)[C@@H](NC(=O)[C@H](CCN)NC(=O)c2cccc(Cl)c2)[C@@H](C)O)CCNC(=O)[C@H]([C@@H](C)O)NC(=O)[C@H](CCN)NC(=O)[C@H](CCN)NC1=O` [Compound 88] ({Benzoyl(3-Cl)}-[Dab]T[Dap][Dab][Dab][dL][Abu][Dab][Dab]T; lactam 4-C), for which the MIC in the data set on Klebsiella pneumoniae came out at 0.5 µg/mL (≈ 0.444 µM). In the data set with Acinetobacter baumannii, the minimum inhibitory concentration (MIC) turned out to be 2 µg/mL (≈ 1.78 µM); the “Minimum inhibitory concentration, Ab A ATCC 17978” value worked out at 0.5 µg/mL (≈ 0.444 µM); the “Minimum inhibitory concentration, Ab ATCC 19606” value was 2 µg/mL (≈ 1.78 µM); the “Minimum inhibitory concentration, Ab FADDI-AB034” value is 0.5 µg/mL (≈ 0.444 µM). In addition, in the data set with Enterobacter cloacae, the “Minimum inhibitory concentration, Ec FADDI-EC001” value amounted to 1 µg/mL (≈ 0.888 µM); the “Minimum inhibitory concentration, Ec FADDI-EC003” value was 0.25 µg/mL (≈ 0.222 µM); the “Minimum inhibitory concentration, Ec FADDI-EC006” value amounted to 0.5 µg/mL (≈ 0.444 µM). Also, in the data set with Pseudomonas aeruginosa, the minimum inhibitory concentration (MIC) stood at 0.5 µg/mL (≈ 0.444 µM); the “Minimum inhibitory concentration, Pa ATCC 27853” value amounted to 0.5 µg/mL (≈ 0.444 µM); the “Minimum inhibitory concentration, Pa FADDI-PA022” value stood at 1 µg/mL (≈ 0.888 µM); the “Minimum inhibitory concentration, Pa FADDI-PA025” value was 2 µg/mL (≈ 1.78 µM). The “Δ log (Treated-Control at 4 h)” value in the data set on P. aeruginosa ATCC 27853 is given as −3.33 log10 CFU/mL. For the same compound, in the data set with A. baumannii ATCC 19606, the “Δ log (Treated-Control at 4 h)” value is −2.46 log10 CFU/mL. In data set [2], the “Max Overall Kidney Histology Score” value amounted to 0.0 and the “Max Kidney Histology Score” value is reported as 0 (SQS 0=no significant change (overall score, <1)).
Turning to `CC[C@@H]1NC(=O)[C@@H](CC(C)C)NC(=O)[C@H](CCN)NC(=O)[C@@H](NC(=O)[C@H](CN)NC(=O)[C@@H](NC(=O)[C@H](CCN)NC(=O)c2cc(Cl)cc(Cl)c2)[C@@H](C)O)CCNC(=O)[C@H]([C@@H](C)O)NC(=O)[C@H](CCN)NC(=O)[C@H](CCN)NC1=O` [Compound 96] ({Benzoyl(3,5-Cl2)}-[Dab]T[Dap][Dab][Dab][dL][Abu][Dab][Dab]T; lactam 4-C), in the data set on Klebsiella pneumoniae, the MIC was less than 0.125 µg/mL. In addition, in the data set with Acinetobacter baumannii, the minimal inhibitory concentration (MIC) was 0.5 µg/mL (≈ 0.431 µM); the “Minimum inhibitory concentration, Ab A ATCC 17978” value amounted to 0.25 µg/mL (≈ 0.215 µM); the “Minimum inhibitory concentration, Ab ATCC 19606” value stood at 0.5 µg/mL (≈ 0.431 µM); the “Minimum inhibitory concentration, Ab FADDI-AB034” value worked out at 0.25 µg/mL (≈ 0.215 µM). In the data set with Enterobacter cloacae, the “Minimum inhibitory concentration, Ec FADDI-EC001” value was 1 µg/mL (≈ 0.862 µM); the “Minimum inhibitory concentration, Ec FADDI-EC003” value turned out to be 1 µg/mL (≈ 0.862 µM); the “Minimum inhibitory concentration, Ec FADDI-EC006” value came to 0.5 µg/mL (≈ 0.431 µM). For the same compound, in the data set on Pseudomonas aeruginosa, the MIC stood at 0.25 µg/mL (≈ 0.215 µM); the “Minimum inhibitory concentration, Pa ATCC 27853” value was found to be 0.25 µg/mL (≈ 0.215 µM); the “Minimum inhibitory concentration, Pa FADDI-PA022” value was 0.25 µg/mL (≈ 0.215 µM); the “Minimum inhibitory concentration, Pa FADDI-PA025” value was 0.5 µg/mL (≈ 0.431 µM). Besides, the “Δ log (Treated-Control at 4 h)” value in the data set on P. aeruginosa ATCC 27853 is −3.45 log10 CFU/mL. Further, the “Δ log (Treated-Control at 4 h)” value with A. baumannii ATCC 19606 is −2.42 log10 CFU/mL. Further, the “Δ log (Treated-Control at 4 h)” value in data set [1] is recorded as −2.75 log10 CFU/mL. In addition, in data set [2], the “Max Overall Kidney Histology Score” value was found to be 2.0 and the “Max Kidney Histology Score” value is “+1 (SQS+1=mild damage (overall score, 1 to <15))”.

As usually defined, the MIC is the lowest concentration that inhibits growth of the organism.

Source of the values: patent publication USRE48335E1, “Polymyxin derivatives as antimicrobial compounds” (priority 2014, dated 2020).
